≈ marks a conversion by molar mass, not a printed value. Square brackets hold non-standard residues; d marks the D form. Ends that are not written are not given here. Peptide text beside a SMILES is read from it. * marks the point of attachment. Trp(2-Pmc) = Cc1c(C)c(S(=O)(=O)c2[nH]c3ccccc3c2C[C@H](N)C(=O)O)c(C)c2c1OC(C)(C)CC2; Bip = N[C@@H](Cc1ccc(-c2ccccc2)cc1)C(=O)O; Acm = CC(=O)NC*
Key:
[1] = tested on: Escherichia coli ATCC 25922; format: cell-based; conditions: ATCC 25922
Outline: (§1)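 Inoculum of 2×10^6 CFU/ml, mid-logarithmic growth phase, in 1% Bacto Peptone water; standard microdilution, performed in triplicate.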

[2] = tested on: Staphylococcus aureus ATCC 25923; format: cell-based; conditions: ATCC 25923
Outline: as §1

human red blood cells = assay: Hemolytic assay; format: cell-based; conditions: red cells of human
Method: The hemolytic activities of the peptides were determined using fresh human red blood cells. 8 ml blood was taken from a healthy person. 4 ml blood was transferred to a polycarbonate tube containing heparin to a final concentration of 10 U/ml, and the remaining 4 ml blood was transferred to a glass tube containing EDTA with final concentration of 15% EDTA. The erythrocytes were isolated from heparin-treated blood by centrifugation in 1500 rpm for 10 min and washed three times with phosphate-buffered saline (PBS) to remove plasma and buffy coat. The cell pellet was resuspended in PBS to make the final volume of 4 ml. The peptide was diluted to a concentration of 2 mg/ml and 0.1 mg/ml. The peptide was further diluted to the concentrations as stated in Table 15. For each tube PBS was added first, then RBCs and peptide solutions. The hematocrit in the blood treated with EDTA was determined after 30 min with Sysmex K-1000, and the resuspended RBCs were diluted into 10% hematocrit. RBCs in PBS (1%) with and without peptides (Table 15) were incubated in a shaker at […] for 1 hour and then centrifuged at 4000 rpm for 5 min. The supernatant were carefully transferred to new polycarbonate tubes and the absorbance of the supernatant was measured at 540 nm. Baseline hemolysis was hemoglobin released in the presence of PBS, and 100% hemolysis was hemoglobin released in the presence of 0.1% Triton X-100.

[3] = tested on: Meth A cells (murine sarcoma cell line); assay: Cytotoxicity on Meth A cells, MTT method
Method: Peptide solutions (0.1 ml) were added and the plates incubated at 37° C. for 30 minutes, 4 hours or 24 hours. The cytotoxicity was measured using the MTT method (Mosmann et al., J. Immunol. (1986) 136, 2348-2357).
Cells in the growth phase were harvested and washed in fresh medium and injected subcutaneously into the abdominal region of the mice.
The cytotoxic effect of the peptides on different murine and human tumor cells were measured using the MTT method (Mosmann et al., J. Immunol. (1986) 136, 2348-2357). MTT is a soluble tetrazolium salt yielding a yellow solution when prepared in media or salt solutions lacking phenol red. Dissolved MTT is converted to an insoluble purple formazan by cleavage of the tetrazolium ring by dehydrogenase enzymes. This water insoluble formazan can be solubilized using isopropanol or other solvents and the dissolved material is measured spectrophotometrically. The absorbance was measured as a function of concentration of converted dye.
Cells were maintained in […] medium containing 10% FBS, 1% L-glutamine and 0.1% penicillin and streptomycin. Cells to be used in the assay were grown to confluency, trypsinated and split to single cell suspension, counted and centrifuged at 1500 rpm for 10 min. […][…] of cell suspension was transferred to each well on a 96-well microtiter plate. The cells were stimulated by adding […] of various concentrations of peptides diluted with assay medium to each well. The final concentrations of peptide were for example: 5, 10, 20, 40, 60, 80, 100, and 200 mg/ml. […] As a negative control only medium was added to the cells, and as a positive control (100% killing) 1% triton X-100 was added. Following an incubation period of 4 h., 20 ml MTT dissolved in PBS at a concentration of 5 mg/ml was added to each well, and the plate was incubated further for 2 h. 130 ml of the supernatant were then removed and […] acid alcohol (0.04-0.1 N HCl in isopropanol) added to each well to dissolve the dark blue crystals. The plate was placed on a shaker for 1 h and read spectrophotometrically at 590 nm in a microtiterplate reader using the Softmaxâ program.

RRWAWRMKK-OH [LFB 20-28 A4]
MIC E. coli [1]: >100 µg/mL | MIC S. aureus [2]: >100 µg/mL | % Hemolysis 10 μg/ml (human red blood cells; 10): 0% | % Hemolysis 100 μg/ml (human red blood cells; 100): 1.68% | MethA IC50 ([3]; 4 h): 500 µg/mL

CSCC[C@H](NC(=O)[C@H](CCCNC(=N)N)NC(=O)[C@H](Cc1c[nH]c2ccccc12)NC(=O)[C@H](CCC(N)=O)NC(=O)[C@H](Cc1c[nH]c2ccccc12)NC(=O)[C@H](CCCNC(=N)N)NC(=O)[C@H](CCCNC(=N)N)NC(=O)[C@H](CSCNC(C)=O)NC(=O)[C@H](CCCCN)NC(=O)[C@@H](N)Cc1ccccc1)C(=O)N[C@@H](CCCCN)C(=O)N[C@@H](CCCCN)C(=O)N[C@@H](CC(C)C)C(=O)N[C@@H](C)C(=O)N[C@@H](C)C(=O)O [LFB A14] (H-FKC(Acm)RRWQWRMKKLAA-OH)
MIC E. coli [1]: 25 µg/mL (≈ 12 µM) | MIC S. aureus [2]: 160 µg/mL (≈ 76.9 µM) | MethA IC50 ([3]; 4 h): 500 µg/mL

CSCC[C@H](NC(=O)[C@H](CCCNC(=N)N)NC(=O)[C@H](Cc1c[nH]c2ccccc12)NC(=O)[C@H](C)NC(=O)[C@H](Cc1c[nH]c2ccccc12)NC(=O)[C@H](CCCNC(=N)N)NC(=O)[C@H](CCCNC(=N)N)NC(=O)[C@H](C)NC(=O)[C@H](CCCCN)NC(=O)[C@H](Cc1ccc(-c2ccccc2)cc1)NC(=O)[C@H](Cc1c[nH]c2ccccc12)NC(=O)[C@H](C)NC(=O)[C@@H]1CCCN1)C(=O)N[C@@H](CCCCN)C(=O)N[C@@H](CCCCN)C(=O)N[C@@H](CC(C)C)C(=O)N[C@@H](C)C(=O)N[C@@H](C)C(=O)O [LFB1431A2, 6, 10, 17Bip4] (H-PAW[Bip]KARRWAWRMKKLAA-OH; N-terminus assumed)
EC50 (human red blood cells): 336 µM | EC50 ([3]; 4 h): 23.4 µM

PAWFKARRWAWRMKKLA-OH [LFB 14-30 A2,6, 10, 17]
EC50 (human red blood cells): > 454 µM | IC50 ([3]; 4 h): > 227 µM

PAWFKARRWAWRMKK-OH [LFB 14-28 A2,6, 10]
EC50 (human red blood cells): > 438 µM | IC50 ([3]; 4 h): > 248 µM

CSCC[C@H](NC(=O)[C@H](CCCNC(=N)N)NC(=O)[C@H](Cc1c[nH]c2ccccc12)NC(=O)[C@H](C)NC(=O)[C@H](Cc1c[nH]c2ccccc12)NC(=O)[C@H](CCCNC(=N)N)NC(=O)[C@H](CCCNC(=N)N)NC(=O)[C@H](CSCNC(C)=O)NC(=O)[C@H](CCCCN)NC(=O)[C@@H](N)Cc1ccccc1)C(=O)N[C@@H](CCCCN)C(=O)N[C@@H](CCCCN)C(=O)N[C@@H](CC(C)C)C(=O)NCC(=O)N[C@@H](C)C(=O)O [LFB A7] (H-FKC(Acm)RRWAWRMKKLGA-OH)
MIC E. coli [1]: 30 µg/mL (≈ 14.9 µM) | MIC S. aureus [2]: 150 µg/mL (≈ 74.7 µM) | MethA IC50 ([3]; 4 h): 500 µg/mL

CSCC[C@H](NC(=O)[C@H](CCCNC(=N)N)NC(=O)[C@H](C)NC(=O)[C@H](CCC(N)=O)NC(=O)[C@H](Cc1c(S(=O)(=O)c2c(C)c(C)c3c(c2C)CCC(C)(C)O3)[nH]c2ccccc12)NC(=O)[C@H](CCCNC(=N)N)NC(=O)[C@H](CCCNC(=N)N)NC(=O)[C@H](CSCNC(C)=O)NC(=O)[C@H](CCCCN)NC(=O)[C@@H](N)Cc1ccccc1)C(=O)N[C@@H](CCCCN)C(=O)N[C@@H](CCCCN)C(=O)N[C@@H](CC(C)C)C(=O)NCC(=O)N[C@@H](C)C(=O)O [LFB A8 PMC] (H-FKC(Acm)RR[Trp(2-Pmc)]QARMKKLGA-OH)
MIC E. coli [1]: 15 µg/mL (≈ 6.77 µM) | MIC S. aureus [2]: 17.5 µg/mL (≈ 7.89 µM) | MethA IC50 ([3]; 4 h): 275 µg/mL

PAWFKARRWAWRMKKL-OH [LFB 14-29 A2,6, 10]
EC50 (human red blood cells): > 469 µM | IC50 ([3]; 4 h): > 235 µM

Linear LFB (17-41) modified with Pmc: linear LFB (17-41) modified with Pmc
cytotoxic effect on Meth A cells compared with another peptide [3]: slightly more effective than Pmc modified LFB 17-31

Source: patent US20030022821A1, “Bioactive peptides” (priority 1998, published 2003)
